The record followed here is article PMC6434079, “Time-dependent inhibition of PHD2” (Bioscience Reports, 2017).

Usually IC50 stands for the concentration that gives 50% inhibition. Usually Km stands for the substrate concentration at which the rate is half of its maximum. As a reminder, the Ki is a dissociation constant, usually derived from enzyme kinetics or from competition with a known ligand. Higher therefore signals weaker binding.

The target in assay [1] is T1, PHD1 (Homo sapiens, UniProt Q96KS0). The assay is described as follows: PHD1 IC50 determination (LC/MS/MS, selectivity screening). It counts as biochemical.
T1 sequence (Q96KS0 163-403): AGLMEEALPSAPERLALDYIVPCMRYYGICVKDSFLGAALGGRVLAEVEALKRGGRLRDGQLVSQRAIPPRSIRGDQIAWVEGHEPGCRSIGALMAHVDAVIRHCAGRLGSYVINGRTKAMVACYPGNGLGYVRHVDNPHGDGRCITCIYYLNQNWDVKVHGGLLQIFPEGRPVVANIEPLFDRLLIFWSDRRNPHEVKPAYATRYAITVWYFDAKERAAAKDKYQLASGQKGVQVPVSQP
Assay [2] has as its target T2, PHD3 (Homo sapiens, UniProt Q9H6Z9). The assay is described as follows: PHD3 IC50 determination (LC/MS/MS, selectivity screening). It counts as biochemical.
Assay [3] deals with T3, FIH1 (Homo sapiens, UniProt Q9NWT6). The assay is described as follows: FIH1 IC50 determination (LC/MS/MS, selectivity screening).
T3 sequence (Q9NWT6 whole entry): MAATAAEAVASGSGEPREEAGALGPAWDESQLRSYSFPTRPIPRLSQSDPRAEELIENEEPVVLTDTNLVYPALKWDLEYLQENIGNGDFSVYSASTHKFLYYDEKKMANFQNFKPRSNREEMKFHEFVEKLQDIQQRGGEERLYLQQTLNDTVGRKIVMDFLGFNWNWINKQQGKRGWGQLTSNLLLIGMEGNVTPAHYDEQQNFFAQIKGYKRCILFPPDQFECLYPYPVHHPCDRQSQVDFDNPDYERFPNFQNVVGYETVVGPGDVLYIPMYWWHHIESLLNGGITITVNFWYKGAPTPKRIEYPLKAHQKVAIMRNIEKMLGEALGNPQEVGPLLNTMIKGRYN
Assay [4] has as its target T3, FIH1. Particulars: read-out: Km for 2-OG, FIH1; 1 μM peptide, 1 mM ascorbic acid, 15 nM enzyme.
Assay [5] deals with T1, PHD1. The note with it: read-out: Km for 2-OG, PHD1; 1 μM peptide, 1 mM ascorbic acid, 50 nM enzyme.
The target in assay [6] is T2, PHD3. Particulars: read-out: Km for 2-OG, PHD3; 1 μM peptide, 1 mM ascorbic acid, 40 nM enzyme.
The target of another assay is PHD2 (Homo sapiens, UniProt Q9GZT9). The assay can be described thus: Mechanism of inhibition and Ki determination at increasing 2-OG concentrations. Particulars: for mechanism of inhibition of PHD2: IC50 increases linearly with increasing 2-OG concentration.
Sequence of PHD2 (Q9GZT9 180-417): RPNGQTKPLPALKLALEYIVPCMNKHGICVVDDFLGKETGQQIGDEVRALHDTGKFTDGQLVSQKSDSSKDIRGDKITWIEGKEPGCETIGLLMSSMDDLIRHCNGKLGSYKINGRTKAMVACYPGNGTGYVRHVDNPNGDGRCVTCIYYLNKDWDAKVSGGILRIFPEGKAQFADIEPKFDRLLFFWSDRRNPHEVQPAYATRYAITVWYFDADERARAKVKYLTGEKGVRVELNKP

Like-named read-outs stand apart in the source and are kept apart here. Where only a bound is given, the exact number is not on record here.

T2 sequence (Q9H6Z9 whole entry): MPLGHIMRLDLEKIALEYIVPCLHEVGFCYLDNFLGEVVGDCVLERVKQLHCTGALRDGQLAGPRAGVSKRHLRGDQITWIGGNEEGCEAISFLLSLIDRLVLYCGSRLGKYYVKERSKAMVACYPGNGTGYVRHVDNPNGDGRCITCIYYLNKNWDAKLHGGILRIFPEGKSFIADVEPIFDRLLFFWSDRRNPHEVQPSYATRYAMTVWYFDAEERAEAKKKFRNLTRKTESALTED

`CC(C)c1nn(Cc2ccc(-c3ccc(F)cc3)cc2F)c(=O)c(C(=O)NCC(=O)O)c1O` [Compound 1]: the IC50 at PHD1 [1] was found to be 0.003 µM; at PHD3 [2], 13 nM.
Consider `O=C(O)CNC(=O)c1nc(Cl)c2ccccc2c1O` [Compound 5], for which the IC50 against PHD1 [1] was 0.016 µM; on PHD3 [2] it was 21 nM; against FIH1 [3], above 10000 nM.
Turning to `O=C(O)CNC(=O)c1c(O)n(C2CCCCC2)c(=O)n(C2CCCCC2)c1=O` [Compound 3], the IC50 turned out to be 0.015 µM against PHD1 [1] and 8 nM against PHD3 [2].
`O=C(NC(c1ccccc1)c1ccccc1)c1cnc(-c2cccnn2)nc1O` [Compound 8]: the values for the half-maximal inhibitory concentration (IC50) on PHD1 [1], at PHD3 [2] and on FIH1 [3] were 0.02 µM, 25 nM and 9770 nM, respectively.
For `O=C(O)CCC(=O)C(=O)O` [Compound 2-OG, 2-oxoglutarate], the results for the Michaelis-Menten constant (Km) at FIH1 [4], at PHD1 [5] and at PHD3 [6] were 0.56 µM, 0.31 µM and 0.66 µM, respectively.
For `Cc1nc(C(=O)NCC(=O)O)c(O)c2ccc(Oc3ccccc3)cc12` [Compound 4], the values for the IC50 against PHD1 [1], at PHD3 [2] and at FIH1 [3] were 0.002 µM, 5 nM and above 10000 nM, respectively. The “mechanism of inhibition of PHD2” value on PHD2 is reported as “compete with 2-OG substrate for binding at the enzyme active site”.
Turning to `O=C(O)c1cnn(-c2nc3cc(C(F)(F)F)c(Cl)cc3[nH]2)c1` [Compound 2], the IC50 is 0.011 µM against PHD1 [1], 25 nM against PHD3 [2] and 5490 nM at FIH1 [3].
At PHD1 [1], `N#Cc1cn(-c2c[nH]n(-c3cc(N4CC(F)(F)C4)ncn3)c2=O)nn1` [Compound 7] returned an IC50 of 0.02 µM. At PHD2, the affinity corresponds to a Ki of 87 nM and the “mechanism of inhibition of PHD2” value is reported as “compete with 2-OG substrate for binding at the enzyme active site”. Further, inhibition against PHD3 [2] was half-maximal at 12 nM (IC50).
As to `O=C(O)CNC(=O)C(=O)O` [Compound 6], the IC50 on PHD1 [1] (read-out: PHD1 IC50 (μM)—60 min incubation, 60 min preincubation, 25 nM PHD1, 2 μM 2-OG) came to 0.851 µM; at PHD3 [2] it was 186 nM; at FIH1 [3], 191 nM.
With `Cc1cccnc1CN1CCC2(CC1)C(=O)N(c1ccc(-c3ccccc3)cc1)c1ccccc12` [Compound 9], the IC50 at PHD1 [1] was 1.62 µM; at PHD3 [2] it was 2040 nM; at FIH1 [3] it was above 10000 nM.
